{"source": "paper PMC4522657", "about": "“Identification of a DYRK1A Inhibitor that Induces Degradation of the Target Kinase using Co-chaperone CDC37 fused with Luciferase nanoKAZ” (Scientific Reports, 2015)", "key": {"CDC37-nanoKAZ": {"tested_on": "CDC37-nanoKAZ", "assay": "Luminescence activity of CDC37-nanoKAZ in total cell lysates", "type": "cell-based", "conditions": "counter-test, same concentrations as interaction assay", "method": "(§1) The luminescence activity of the cell lysates was determined using a Centro LB 960 Microplate Luminometer (Berthold Technologies, Bad Wildbad, Germany). A reaction mixture containing bis-coelenterazine (final concentration of 0.1–1 μg/100 μL) in PBS containing 0.02% Tween20 and 20 mM EDTA was injected. The luminescence intensity was recorded at 0.1 s intervals for 10 s or 10 min. The maximum luminescence intensity (Imax), represented in relative luminescence units (rlu), was used in the study.\nTargeting the DYRK1A/CDC37 complex\n(a-d) Luminescence intensities of total cell lysates of cells treated with the indicated […]\nFigure 4. Luminescence intensities at each concentration are shown as fold-changes relative to that at 0 nM. Points are means ± SD (n = 3).\n(1 picture or pasted object on this page, not shown here)\nLuminescence intensities of total cell lysates of cells treated with the indicated concentrations of CaNDY, as also used in Figure 5c. Luminescence intensities at each concentration are shown as fold-changes to that at 0 nM. Points are means ± SD (n = 3)."}, "[1]": {"target": "T1, interaction of CDC37-nanoKAZ with 3xFLAG-DYRK1A (Y319F/Y321F) (Homo sapiens, UniProt Q13627, Y319F/Y321F)", "T1 construct": "F2A peptide linking to EGFP (2A skipping releases EGFP; a 2A remnant may stay on DYRK1A) (C); expressed in transfected cells; host or cells: 293T cells stably expressing CDC37-nanoKAZ, transiently transfected with pcDNA5/FRT/TO 3xFLAG-DYRK1A (Y319F/Y321F)", "assay": "CDC37-nanoKAZ binding assay (ELISA of the CDC37-nanoKAZ interaction) in 293T cells", "type": "cell-based", "conditions": "for pEC50: 293T cells stably expressing CDC37-nanoKAZ, treated one hour, read-out: EC50, decrease of relative luminescence intensity; for antagonism of the CDC37-nanoKAZ interaction: result in words, Fig. 6c", "method": "The cells were then treated with the indicated concentrations of small molecules for one hour. Cell lysates were added to FLAG antibody-coated 96-well plates and luminescence intensities were measured. The amount of bound 3xFLAG-DYRK1A was measured using a HRP-conjugated antibody against FLAG. The relative Imax for CDC37-nanoKAZ was normalized using the amount of bound protein.\nStable cell lines transfected with expression vectors for 3xFLAG-tagged DYRK family kinases and its mutants were lysed in ice-cold HENG buffer (50 mM HEPES-KOH, pH 7.9, 150 mM NaCl, 20 mM Na2MoO4, 2 mM EDTA, 5% Glycerol, 0.5% TritonX-100) containing protease inhibitor cocktail (Nacalai Tesque) on ice. […] The wells were wash three times with ice-cold HENG buffer and then a luminescence assay was performed.\nas §1\nAfter measuring the luminescence intensities, the wells were washed three times with HENG buffer, and incubated with HRP-conjugated anti-FLAG antibody diluted with PBS containing […] and 2% fetal bovine serum at 37 °C for one hour. After extensive washing, […] Super Sensitive One Component HRP Microwell Substrate (SurModics, Eden Prairie, MN, USA) was added into the well and the reaction was stopped with sulfuric acid. Absorbance at 450 nm was measured with ARVO X5 (PerkinElmer). The relative amount of protein bound on the well was estimated from the absorbance.\nIn Supporting Figure S1a, the values of Imax are shown in kinetics plots. In Figs 2c,e, 3c, S1d, S3, and S4, the relative luminescence intensities are shown as the fold-change in the Imax values of the samples relative to Imax with EGFP. In Figs 4, 5a,c and 6c, the relative luminescence intensities were normalized to the amount of the bound 3xFLAG-DYRK1A mutant and calculated as the fold-change relative to the value at 0 μM of the compounds.\nSmall molecules in our original synthetic chemical library, including unpublished small molecule inhibitors of DYRK1A and its structural derivatives (data not shown), were added to the 96-well plates containing the transfected cells at a final concentration of 4 μM. The cells were then processed as described above."}, "DYRK1A": {"target": "DYRK1A (Homo sapiens, UniProt Q13627)", "assay": "In vitro kinase assay, substrate DYRKtide-F", "type": "biochemical", "set-up": "full-length human recombinant kinases were expressed using a baculovirus expression system as amino-terminal GST-fusion proteins; GST (N); purchased Carna Biosciences; host or cells: baculovirus expression system", "conditions": "for inhibitory activity against recombinant DYRK1A: result in words, Fig. 6b", "source_text": "Detailed information on the assay conditions is available on the website of Carna Biosciences (http://www.carnabio.com/english/index.html; Kobe, Japan). In brief, full-length human recombinant kinases were expressed using a baculovirus expression system as amino-terminal GST-fusion proteins, and purified by glutathione-Sepharose chromatography. The GenBank accession numbers of DYRK1A, DYRK1B, DYRK2, and DYRK3 were NP_001387.2, NP_004705.1, NP_003574.1, and NP_003573.2. […] For each compound, a DMSO solution was diluted in assay buffer to yield a final concentration of 1% DMSO. After incubation for one hour at room temperature, substrate phosphorylation was analyzed by electrophoretic separation of the substrate and products using a Caliper LC3000 platform (Caliper Life Sciences, Mountain View, CA, USA). The phosphorylated product (P)/(P + substrate) ratio was calculated at each concentration of each small molecule and the percent inhibition was expressed relative to a control assay in the absence of the small molecule. […] The IC50 of each compound was calculated by interpolation on a log-concentration-response curve fitted with a four-parameter logistic equation."}, "3xFLAG-DYRK1A": {"target": "T2, 3xFLAG-DYRK1A (Homo sapiens, UniProt Q13627)", "T2 construct": "F2A peptide linking to EGFP (2A skipping releases EGFP; a 2A remnant may stay on DYRK1A) (C); expressed in transfected cells; host or cells: 293T cells, transient", "assay": "Western blot of 3xFLAG-DYRK1A level in transfected 293T cells", "type": "cell-based", "method": "To investigate whether DYRK1A is a client kinase of the CDC37/HSP90 system, we used a HSP90 inhibitor, ganetespib. 293T cells were transiently transfected with an expression vector of 3xFLAG-tagged DYRK1A (3xFLAG-DYRK1A). At 24 h after transfection, the cells were treated with ganetespib for the indicated time (0–8 h). Total cell lysates were collected and subjected to SDS-PAGE followed by Western blot analysis.\nFigure 1 Ganetespib, a HSP90 inhibitor, decreases the DYRK1A protein level. 293T cells were transiently transfected with an expression vector for 3xFLAG-DYRK1A. At 24 h after transfection, the cells were treated with ganetespib (100 nM) and collected 0 and 8 h after treatment. Total cell lysates were subjected to SDS-PAGE followed by Western blot analysis using antibodies against FLAG and GAPDH. In the control group (DMSO), expression of 3xFLAG-DYRK1A increased at 8 h compared to 0 h, and ganetespib suppressed this increase of 3xFLAG-DYRK1A.\n(§2) Western blot analysis was performed using the antibodies described above. In brief, total cell lysates were separated by SDS-PAGE (5–20% gels; ATTO, Tokyo, Japan) under reducing conditions and then transferred to a PVDF membrane (PALL, SP, Brazil). Antibody reactions were performed with Can Get Signal® Immunoreaction Enhancer Solution (Toyobo). Peroxidase activities on the membrane were visualized with ECL Western Blotting Detection Reagents (GE Healthcare) or ImmunoStar® LD (Wako Pure Chemical Industries, Osaka, Japan), and a ChemiDoc^TM MP Imaging System (Bio-Rad, Hercules, CA, USA)."}, "endogenous DYRK1A": {"target": "T3, endogenous DYRK1A (Homo sapiens, UniProt Q13627)", "T3 construct": "endogenous in cells; host or cells: HEK293", "assay": "Western blot of endogenous DYRK1A protein in HEK293 cells", "type": "cell-based", "conditions": "ganetespib 100 nM, 4 days", "method": "We investigated whether CaNDY destabilizes DYRK1A as ganetespib does. […] Next we examined whether CaNDY decreased endogenous DYRK1A protein. HEK293 cells were cultured for 0–4 days with CaNDY (2 μM) and then subjected to SDS-PAGE followed by Western blot analysis using antibodies against DYRK1A and GAPDH. […] The treated cells were also subjected to reverse transcription followed by quantitative PCR analysis.\nas §2"}}, "note": "pEC50, pIC50: −log10 of the molar value.", "data": [{"smiles": "CCN1/C(=C/C(C)=O)Sc2ccc(O)cc21", "note": "[INDY]", "values": [{"measurement": "inhibition of luminescence activity of CDC37-nanoKAZ", "setting": "CDC37-nanoKAZ", "value": "did not inhibit"}]}, {"smiles": "N=C1NC(=O)C(=Cc2ccc3c(c2)OCO3)S1", "note": "[PD0439]", "values": [{"measurement": "pEC50", "setting": "[1]", "value": 6.24}, {"measurement": "pIC50", "setting": "DYRK1A; 25 μM ATP, 1 μM DYRKtide-F, read-out: IC50, substrate phosphorylation", "value": 7.78}]}, {"smiles": "[H]/N=C1/NC(=O)C(=Cc2ccc3[nH]ccc3c2)S1", "note": "[PD0442]", "values": [{"measurement": "antagonism of the CDC37-nanoKAZ interaction", "setting": "[1]", "value": "did not antagonize the interaction"}, {"measurement": "inhibitory activity against recombinant DYRK1A", "setting": "DYRK1A", "value": "weak inhibitory activity"}]}, {"smiles": "O=C1NC(=S)S/C1=C\\c1ccc2[nH]ccc2c1", "note": "[RD0440]", "values": [{"measurement": "antagonism of the CDC37-nanoKAZ interaction", "setting": "[1]", "value": "did not antagonize the interaction"}, {"measurement": "inhibitory activity against recombinant DYRK1A", "setting": "DYRK1A", "value": "weak inhibitory activity"}]}, {"smiles": "CC[C@H](C)[C@H](NC(=O)[C@H]([C@@H](C)CC)N(C)C(C)=O)C(=O)N[C@H](C(=O)N[C@@H](CC(C)C)C(=O)[C@@]1(C)CO1)[C@@H](C)O", "note": "[epoxomicin]", "values": [{"measurement": "effect on CaNDY-mediated degradation of 3xFLAG-DYRK1A", "setting": "3xFLAG-DYRK1A; 2 µM epoxomicin pre-treatment 1 h, then CaNDY 2 µM 8 h", "value": "partially prevented"}]}, {"smiles": "CC(C)c1cc(-c2n[nH]c(=O)n2-c2ccc3c(ccn3C)c2)c(O)cc1O", "note": "[ganetespib, reference compound]", "values": [{"measurement": "DYRK1A protein level", "setting": "3xFLAG-DYRK1A; ganetespib 100 nM, 8 h, compared with DMSO", "value": "decreased the DYRK1A level"}, {"measurement": "pEC50", "setting": "[1]", "value": 7.85}, {"measurement": "accumulation of endogenous DYRK1A", "setting": "endogenous DYRK1A", "value": "prevented it"}, {"measurement": "inhibition of luminescence activity of CDC37-nanoKAZ", "setting": "CDC37-nanoKAZ", "value": "did not inhibit"}]}, {"smiles": "COc1ccc2c(c1)[nH]c1c(C)nccc12", "note": "[harmine]", "values": [{"measurement": "inhibition of luminescence activity of CDC37-nanoKAZ", "setting": "CDC37-nanoKAZ", "value": "did not inhibit"}]}]}
